Data on 17 compounds can be found in ChEMBL document CHEMBL3991601, “The target landscape of clinical kinase drugs” (Science, 2017).

Active and inactive are the calls of the source.

As usually defined, the Kd is the free concentration of one partner at which half of the binding sites on the other are occupied at equilibrium, for simple one-to-one binding.

Assay [1] addresses Tyrosine-protein kinase ABL2 (Homo sapiens, UniProt P42684).
Assay [2] concerns the target Serine/threonine-protein kinase MRCK beta (Homo sapiens, UniProt Q9Y5S2).
Assay [3] deals with Serine/threonine-protein kinase/endoribonuclease IRE2 (Homo sapiens, UniProt Q76MJ5).
Assay [4] addresses RAC-gamma serine/threonine-protein kinase (Homo sapiens, UniProt Q9Y243).
The target of assay [5] is Cyclin-dependent kinase 5 (Homo sapiens, UniProt Q00535).
In assay [6] the target is T1, Serine/threonine-protein kinase TAO3 (Homo sapiens, UniProt Q9H2K8).
T1 sequence (Q9H2K8 whole entry): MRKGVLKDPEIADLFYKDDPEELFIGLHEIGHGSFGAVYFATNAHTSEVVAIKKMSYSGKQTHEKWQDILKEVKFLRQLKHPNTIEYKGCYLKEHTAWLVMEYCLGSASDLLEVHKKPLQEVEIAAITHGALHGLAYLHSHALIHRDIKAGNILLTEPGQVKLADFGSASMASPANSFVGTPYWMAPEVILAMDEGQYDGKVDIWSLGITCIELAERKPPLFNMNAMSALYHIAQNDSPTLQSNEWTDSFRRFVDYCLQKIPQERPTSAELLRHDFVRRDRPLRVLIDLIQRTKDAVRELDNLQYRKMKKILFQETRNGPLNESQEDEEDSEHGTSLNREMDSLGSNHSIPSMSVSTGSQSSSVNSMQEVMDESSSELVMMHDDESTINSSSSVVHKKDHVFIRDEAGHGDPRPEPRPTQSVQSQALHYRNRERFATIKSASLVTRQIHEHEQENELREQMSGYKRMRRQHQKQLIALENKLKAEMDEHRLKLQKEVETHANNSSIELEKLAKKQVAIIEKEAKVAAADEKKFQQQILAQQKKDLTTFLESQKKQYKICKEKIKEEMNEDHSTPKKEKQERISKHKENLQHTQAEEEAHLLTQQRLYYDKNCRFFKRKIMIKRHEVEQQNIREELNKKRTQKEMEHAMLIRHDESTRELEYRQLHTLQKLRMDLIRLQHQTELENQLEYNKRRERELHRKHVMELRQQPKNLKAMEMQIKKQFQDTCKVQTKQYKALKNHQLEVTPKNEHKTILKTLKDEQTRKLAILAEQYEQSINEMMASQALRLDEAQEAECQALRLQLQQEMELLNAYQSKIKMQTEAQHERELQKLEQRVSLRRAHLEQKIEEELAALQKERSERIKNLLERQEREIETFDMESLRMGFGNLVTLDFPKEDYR

The target in assay [7] is T2, Receptor-type tyrosine-protein kinase FLT3 (Homo sapiens, UniProt P36888).
T2 sequence (P36888 whole entry): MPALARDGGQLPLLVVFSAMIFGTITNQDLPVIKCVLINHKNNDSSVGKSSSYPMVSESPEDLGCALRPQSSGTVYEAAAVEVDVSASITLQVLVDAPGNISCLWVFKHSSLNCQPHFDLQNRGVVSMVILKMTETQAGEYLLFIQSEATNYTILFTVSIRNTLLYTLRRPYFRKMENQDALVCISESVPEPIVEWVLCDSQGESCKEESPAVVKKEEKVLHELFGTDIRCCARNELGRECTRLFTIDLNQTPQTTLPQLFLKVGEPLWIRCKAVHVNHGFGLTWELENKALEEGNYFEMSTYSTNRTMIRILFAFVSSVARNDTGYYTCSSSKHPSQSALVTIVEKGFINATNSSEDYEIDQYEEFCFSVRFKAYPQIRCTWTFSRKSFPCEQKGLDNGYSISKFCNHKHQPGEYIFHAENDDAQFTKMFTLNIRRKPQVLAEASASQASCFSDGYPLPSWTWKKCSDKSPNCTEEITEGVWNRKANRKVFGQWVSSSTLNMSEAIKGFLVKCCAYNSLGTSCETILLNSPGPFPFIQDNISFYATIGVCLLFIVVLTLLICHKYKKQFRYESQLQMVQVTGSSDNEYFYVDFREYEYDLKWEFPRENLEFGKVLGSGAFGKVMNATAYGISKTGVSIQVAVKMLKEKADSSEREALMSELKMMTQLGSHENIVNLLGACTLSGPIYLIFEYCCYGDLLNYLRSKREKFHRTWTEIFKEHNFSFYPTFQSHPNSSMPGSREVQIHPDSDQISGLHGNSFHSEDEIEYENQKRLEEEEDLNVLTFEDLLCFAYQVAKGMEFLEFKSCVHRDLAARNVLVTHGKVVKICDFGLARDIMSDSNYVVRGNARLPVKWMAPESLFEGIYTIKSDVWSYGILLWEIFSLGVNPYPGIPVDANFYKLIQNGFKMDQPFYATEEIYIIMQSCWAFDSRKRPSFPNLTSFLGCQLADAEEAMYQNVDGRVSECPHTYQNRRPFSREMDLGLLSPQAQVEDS

Assay [8] addresses NADH dehydrogenase [ubiquinone] 1 alpha subcomplex subunit 13 (Homo sapiens, UniProt Q9P0J0).
Another assay deals with T3, Aurora kinase A (Homo sapiens, UniProt O14965).
T3 sequence (O14965 whole entry): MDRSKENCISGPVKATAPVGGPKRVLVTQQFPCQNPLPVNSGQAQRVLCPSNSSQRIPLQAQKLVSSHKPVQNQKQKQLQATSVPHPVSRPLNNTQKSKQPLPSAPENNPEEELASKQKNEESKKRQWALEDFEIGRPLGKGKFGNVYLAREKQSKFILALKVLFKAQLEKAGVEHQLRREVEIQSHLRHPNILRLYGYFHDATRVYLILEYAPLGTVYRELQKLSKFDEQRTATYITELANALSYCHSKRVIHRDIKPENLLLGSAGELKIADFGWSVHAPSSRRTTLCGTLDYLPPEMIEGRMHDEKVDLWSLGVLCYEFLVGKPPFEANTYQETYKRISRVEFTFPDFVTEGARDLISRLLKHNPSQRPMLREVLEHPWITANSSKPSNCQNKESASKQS
Note: in the data inactive means no Kd found up to 30 µM.

Chain of NADH dehydrogenase [ubiquinone] 1 alpha subcomplex subunit 13 (Q9P0J0 whole entry, one chain of several): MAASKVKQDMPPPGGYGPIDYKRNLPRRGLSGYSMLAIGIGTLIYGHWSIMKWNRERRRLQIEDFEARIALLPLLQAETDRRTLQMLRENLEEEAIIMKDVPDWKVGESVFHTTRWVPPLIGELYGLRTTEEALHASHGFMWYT
Chain of Serine/threonine-protein kinase/endoribonuclease IRE2 (Q76MJ5 whole entry): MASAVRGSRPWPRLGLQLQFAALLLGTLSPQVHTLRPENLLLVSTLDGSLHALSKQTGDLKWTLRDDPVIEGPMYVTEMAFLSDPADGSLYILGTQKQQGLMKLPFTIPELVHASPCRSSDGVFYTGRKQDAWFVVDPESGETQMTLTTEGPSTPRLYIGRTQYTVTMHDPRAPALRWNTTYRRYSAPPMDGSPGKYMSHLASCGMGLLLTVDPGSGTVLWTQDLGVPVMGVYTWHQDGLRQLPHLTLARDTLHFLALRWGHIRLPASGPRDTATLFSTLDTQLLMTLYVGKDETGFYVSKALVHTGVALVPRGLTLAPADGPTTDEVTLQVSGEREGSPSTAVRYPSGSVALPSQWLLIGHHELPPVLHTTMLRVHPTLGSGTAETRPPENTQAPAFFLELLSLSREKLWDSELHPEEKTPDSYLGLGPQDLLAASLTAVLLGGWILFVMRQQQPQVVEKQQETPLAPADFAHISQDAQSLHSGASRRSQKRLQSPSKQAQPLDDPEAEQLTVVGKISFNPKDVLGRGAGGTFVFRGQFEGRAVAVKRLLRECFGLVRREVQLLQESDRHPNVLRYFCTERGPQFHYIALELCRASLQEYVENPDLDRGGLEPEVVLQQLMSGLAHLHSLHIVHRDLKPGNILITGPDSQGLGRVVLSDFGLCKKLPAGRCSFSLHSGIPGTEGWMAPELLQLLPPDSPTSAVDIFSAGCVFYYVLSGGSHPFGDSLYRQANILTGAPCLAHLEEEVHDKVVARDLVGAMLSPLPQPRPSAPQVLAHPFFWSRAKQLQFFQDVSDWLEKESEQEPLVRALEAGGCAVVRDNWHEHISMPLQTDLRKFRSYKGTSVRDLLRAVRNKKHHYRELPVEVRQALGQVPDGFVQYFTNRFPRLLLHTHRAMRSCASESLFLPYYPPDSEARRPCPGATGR
Chain of Serine/threonine-protein kinase MRCK beta (Q9Y5S2 whole entry): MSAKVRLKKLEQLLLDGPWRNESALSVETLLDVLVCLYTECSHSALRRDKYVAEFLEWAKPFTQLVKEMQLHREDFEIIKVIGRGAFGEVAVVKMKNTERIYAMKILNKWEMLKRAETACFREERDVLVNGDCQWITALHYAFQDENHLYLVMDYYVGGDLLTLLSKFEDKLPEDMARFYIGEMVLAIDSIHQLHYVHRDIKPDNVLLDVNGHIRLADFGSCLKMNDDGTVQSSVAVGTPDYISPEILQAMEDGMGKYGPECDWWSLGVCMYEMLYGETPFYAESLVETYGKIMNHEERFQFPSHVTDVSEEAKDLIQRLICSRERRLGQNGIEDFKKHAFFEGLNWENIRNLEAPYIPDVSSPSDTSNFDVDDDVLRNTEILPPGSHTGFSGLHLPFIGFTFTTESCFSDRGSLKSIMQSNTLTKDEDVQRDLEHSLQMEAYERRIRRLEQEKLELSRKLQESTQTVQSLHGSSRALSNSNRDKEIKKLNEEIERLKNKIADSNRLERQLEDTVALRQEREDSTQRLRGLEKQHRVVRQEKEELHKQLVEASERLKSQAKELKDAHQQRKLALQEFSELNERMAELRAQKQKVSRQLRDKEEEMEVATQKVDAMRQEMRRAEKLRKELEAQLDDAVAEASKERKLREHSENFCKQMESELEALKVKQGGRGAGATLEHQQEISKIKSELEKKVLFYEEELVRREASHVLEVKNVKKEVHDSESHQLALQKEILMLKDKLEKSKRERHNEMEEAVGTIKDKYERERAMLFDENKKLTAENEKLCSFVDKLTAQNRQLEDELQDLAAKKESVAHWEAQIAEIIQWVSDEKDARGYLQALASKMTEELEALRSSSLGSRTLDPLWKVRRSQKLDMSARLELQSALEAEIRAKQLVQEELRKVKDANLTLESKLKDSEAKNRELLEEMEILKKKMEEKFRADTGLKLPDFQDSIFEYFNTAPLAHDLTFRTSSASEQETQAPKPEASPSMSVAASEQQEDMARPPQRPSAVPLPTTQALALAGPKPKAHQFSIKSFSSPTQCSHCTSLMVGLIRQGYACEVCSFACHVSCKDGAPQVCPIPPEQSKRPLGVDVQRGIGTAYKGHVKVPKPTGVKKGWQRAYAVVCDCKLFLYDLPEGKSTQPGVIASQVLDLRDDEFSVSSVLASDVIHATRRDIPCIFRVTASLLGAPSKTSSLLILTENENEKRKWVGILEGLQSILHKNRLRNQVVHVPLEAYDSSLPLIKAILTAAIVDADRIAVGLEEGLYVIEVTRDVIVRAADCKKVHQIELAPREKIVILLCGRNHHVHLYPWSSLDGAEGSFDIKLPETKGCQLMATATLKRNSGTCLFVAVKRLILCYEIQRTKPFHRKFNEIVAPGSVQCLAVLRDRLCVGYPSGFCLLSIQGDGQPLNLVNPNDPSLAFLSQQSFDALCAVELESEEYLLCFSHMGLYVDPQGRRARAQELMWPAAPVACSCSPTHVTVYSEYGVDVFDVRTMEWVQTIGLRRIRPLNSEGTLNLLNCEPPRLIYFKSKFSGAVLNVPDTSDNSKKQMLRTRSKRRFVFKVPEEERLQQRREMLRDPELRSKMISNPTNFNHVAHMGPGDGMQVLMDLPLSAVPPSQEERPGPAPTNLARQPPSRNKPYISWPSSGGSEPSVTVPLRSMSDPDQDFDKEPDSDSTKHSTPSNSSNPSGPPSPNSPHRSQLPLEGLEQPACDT
Chain of Cyclin-dependent kinase 5 (Q00535 whole entry): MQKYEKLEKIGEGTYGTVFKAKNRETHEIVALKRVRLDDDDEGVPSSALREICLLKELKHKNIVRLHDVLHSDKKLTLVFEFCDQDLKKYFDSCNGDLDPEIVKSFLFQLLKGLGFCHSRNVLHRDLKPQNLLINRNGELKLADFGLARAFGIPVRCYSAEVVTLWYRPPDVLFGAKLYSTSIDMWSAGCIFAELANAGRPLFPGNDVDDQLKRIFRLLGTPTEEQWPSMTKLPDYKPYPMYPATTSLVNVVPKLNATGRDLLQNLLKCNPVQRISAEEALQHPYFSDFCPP
Chain of Tyrosine-protein kinase ABL2 (P42684 whole entry): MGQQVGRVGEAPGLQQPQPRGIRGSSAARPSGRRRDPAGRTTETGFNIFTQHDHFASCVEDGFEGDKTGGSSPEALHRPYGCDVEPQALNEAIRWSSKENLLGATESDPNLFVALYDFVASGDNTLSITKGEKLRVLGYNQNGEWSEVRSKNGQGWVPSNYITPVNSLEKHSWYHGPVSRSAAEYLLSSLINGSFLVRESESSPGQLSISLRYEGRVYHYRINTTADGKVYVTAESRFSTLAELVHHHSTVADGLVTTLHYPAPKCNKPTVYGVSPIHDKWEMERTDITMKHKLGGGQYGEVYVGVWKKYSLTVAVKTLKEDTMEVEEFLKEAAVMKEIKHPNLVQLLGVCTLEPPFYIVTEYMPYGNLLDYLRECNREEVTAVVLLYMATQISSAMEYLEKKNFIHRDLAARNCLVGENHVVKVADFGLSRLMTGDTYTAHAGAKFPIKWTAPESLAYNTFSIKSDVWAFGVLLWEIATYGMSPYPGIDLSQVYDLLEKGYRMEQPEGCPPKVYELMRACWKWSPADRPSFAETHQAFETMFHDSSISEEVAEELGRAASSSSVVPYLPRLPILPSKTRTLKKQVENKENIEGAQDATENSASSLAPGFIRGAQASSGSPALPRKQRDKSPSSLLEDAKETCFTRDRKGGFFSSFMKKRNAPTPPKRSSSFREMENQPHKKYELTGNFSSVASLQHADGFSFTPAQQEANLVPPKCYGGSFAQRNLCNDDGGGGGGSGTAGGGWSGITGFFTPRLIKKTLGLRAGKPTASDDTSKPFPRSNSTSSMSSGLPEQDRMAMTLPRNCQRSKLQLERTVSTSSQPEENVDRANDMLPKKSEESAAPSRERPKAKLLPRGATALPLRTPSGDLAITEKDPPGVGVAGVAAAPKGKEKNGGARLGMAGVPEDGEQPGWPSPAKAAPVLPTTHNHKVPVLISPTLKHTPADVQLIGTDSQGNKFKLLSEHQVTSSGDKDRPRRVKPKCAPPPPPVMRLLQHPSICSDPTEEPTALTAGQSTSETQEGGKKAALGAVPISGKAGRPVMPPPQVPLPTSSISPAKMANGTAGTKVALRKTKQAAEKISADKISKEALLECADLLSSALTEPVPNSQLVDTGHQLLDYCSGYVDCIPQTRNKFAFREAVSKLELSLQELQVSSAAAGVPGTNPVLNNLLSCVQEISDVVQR
Chain of RAC-gamma serine/threonine-protein kinase (Q9Y243 whole entry): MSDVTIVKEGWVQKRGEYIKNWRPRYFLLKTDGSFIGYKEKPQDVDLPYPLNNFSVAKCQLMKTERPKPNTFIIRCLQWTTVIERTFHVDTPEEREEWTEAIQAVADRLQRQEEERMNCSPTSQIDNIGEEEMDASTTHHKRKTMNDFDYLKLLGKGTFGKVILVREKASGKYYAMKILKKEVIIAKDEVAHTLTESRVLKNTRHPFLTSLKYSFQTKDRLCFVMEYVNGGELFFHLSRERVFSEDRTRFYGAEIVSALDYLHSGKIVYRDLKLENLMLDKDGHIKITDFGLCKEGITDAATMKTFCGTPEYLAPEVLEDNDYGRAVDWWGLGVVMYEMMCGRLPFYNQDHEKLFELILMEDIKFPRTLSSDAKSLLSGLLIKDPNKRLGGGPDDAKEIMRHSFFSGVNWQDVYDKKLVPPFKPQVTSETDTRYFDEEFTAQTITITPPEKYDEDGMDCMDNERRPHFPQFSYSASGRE

Turning to `COc1cc2nccc(Oc3ccc(NC(=O)NC4CC4)c(Cl)c3)c2cc1C(N)=O` [LENVATINIB], the Kd in [1], in assay [2], in assay [3], in [4], in assay [5] and in assay [6] was > 30 µM (inactive) each time. Besides, the Kd in assay [7] and in [8] was > 30 µM (inactive) throughout.

For `O=C(Nc1cccc(Cl)c1)Nc1ncc(CCNc2ncnc3ccsc23)s1` [SNS-314], the Kd in assay [1], in assay [2], in assay [3], in [6] and in assay [8] was > 30 µM (inactive) each time.

With `Cc1cn(-c2cc(NC(=O)c3ccc(C)c(Nc4nccc(-c5cccnc5)n4)c3)cc(C(F)(F)F)c2)cn1` [NILOTINIB], the Kd in assay [3] and in assay [8] was > 30 µM (inactive) throughout.

With `COc1cc(CCc2cc(NC(=O)c3ccc(N4C[C@@H](C)N[C@@H](C)C4)cc3)n[nH]2)cc(OC)c1` [AZD-4547], the Kd in assay [1], in [2], in assay [3], in [4], in [5] and in assay [6] was > 30 µM (inactive) in each case. The Kd in assay [7] and in [8] was > 30 µM (inactive) throughout.

Regarding `Nc1nc(N)c2nc(-c3cccc(O)c3)c(-c3cccc(O)c3)nc2n1` [TG100-115], the Kd in [3] and in assay [8] was > 30 µM (inactive) each time.

Regarding `CN1CCN(c2ccc3nc(-c4c(N)c5c(F)cccc5[nH]c4=O)[nH]c3c2)CC1` [DOVITINIB], the Kd in assay [3] and in assay [8] was > 30 µM (inactive) in each case.

Turning to `Cc1cc(Nc2cc(N3CCN(C)CC3)nc(/C=C/c3ccccc3)n2)n[nH]1` [ENMD-2076], the Kd in assay [2], in assay [3] and in assay [8] was > 30 µM (inactive) throughout.

In the case of `Cc1nc(N)sc1-c1ccnc(Nc2ccc(N3CCOCC3)cc2)n1` [CYC-116], the Kd in assay [1], in assay [2], in assay [3] and in assay [8] was > 30 µM (inactive) in each case.

For `C[C@@H](Nc1cc(F)cc(F)c1)c1cc(C(=O)N(C)C)cc2c(=O)cc(N3CCOCC3)oc12` [AZD-8186], the Kd on Aurora kinase A is > 30 µM (inactive); in assay [1] it was > 30 µM (inactive); in [2], > 30 µM (inactive); in assay [3] it was 1.5 µM; in assay [5], > 30 µM (inactive); in [6], > 30 µM (inactive). Besides, the Kd in assay [7] and in assay [8] was > 30 µM (inactive) throughout.

As for `C[C@@H](c1ccc2nccn2c1)n1nnc2ncc(-c3cnn(C)c3)nc21` [SAVOLITINIB], the Kd (on Aurora kinase A; in [1]; in assay [2]; in assay [3]; in [5]; in [6]) was > 30 µM (inactive) in each case. For the same compound, the Kd in assay [7] was > 30 µM (inactive).

Regarding `CCn1c(-c2nonc2N)nc2c(C#CC(C)(C)O)ncc(OC[C@H]3CCCNC3)c21` [GSK-690693], the Kd in assay [3] and in assay [8] was > 30 µM (inactive) each time.

On to `CCc1cnn2c(NCc3ccc[n+]([O-])c3)cc(N3CCCC[C@H]3CCO)nc12` [DINACICLIB], for which the Kd in assay [1] is > 30 µM (inactive); in [2], > 30 µM (inactive); in assay [3], > 30 µM (inactive); in [4], > 30 µM (inactive); in [6], 2.44 µM (active); in assay [7] it was > 30 µM (inactive). For the same compound, the Kd in assay [8] is > 30 µM (inactive).

Take `CNC(=O)c1cc(Oc2ccc(NC(=O)Nc3ccc(Cl)c(C(F)(F)F)c3)c(F)c2)ccn1` [REGORAFENIB]: the Kd (on Aurora kinase A; in assay [1]; in assay [2]; in [3]; in assay [4]; in assay [5]) was > 30 µM (inactive) each time. The Kd in [6] and in assay [8] was > 30 µM (inactive) each time.

Consider `COc1cc2nccc(Oc3ccc(NC(=O)Nc4cc(C)on4)c(Cl)c3)c2cc1OC` [TIVOZANIB], for which the Kd on Aurora kinase A is > 30 µM (inactive); in assay [1], 0.302 µM (active); in assay [2], > 30 µM (inactive); in assay [3], > 30 µM (inactive); in assay [4], > 30 µM (inactive); in assay [5], > 30 µM (inactive). For the same compound, the Kd in [6] and in assay [8] was > 30 µM (inactive) in each case.

For `O=C(O)[C@]1(Cc2cccc(Nc3nccs3)n2)CC[C@@H](Oc2cccc(Cl)c2F)CC1` [MK-5108], the equilibrium dissociation constant (Kd) in [1] is 0.077 µM (active); in assay [2], > 30 µM (inactive); in assay [3] it was > 30 µM (inactive); in assay [4] it was > 30 µM (inactive); in [5], > 30 µM (inactive); in [6], > 30 µM (inactive). Further, the Kd in [7] and in assay [8] was > 30 µM (inactive) in each case.

Turning to `OCCn1cc(-c2cnc3nnn(Cc4ccc5ncccc5c4)c3n2)cn1` [PF-04217903], the Kd in [1], in [2], in assay [3], in assay [4], in assay [6] and in [8] was > 30 µM (inactive) each time.

Consider `C1=C/COCc2cc(ccc2OCCN2CCCC2)Nc2nccc(n2)-c2cccc(c2)COC/1` [PACRITINIB], for which the Kd (at Aurora kinase A; in assay [1]; in [2]; in assay [3]; in assay [4]; in assay [5]) was > 30 µM (inactive) throughout. For the same compound, the Kd in assay [6] and in assay [8] was > 30 µM (inactive) in each case.
